How the values were obtained:
FSH = test: Phase I repeated dose study 101-50202: serum FSH; assay type: in vivo, human
Description: Fispemifene has been studied in two phase I studies in humans—in a single dose and a repeated dose study. Effect of fispemifene on hormone levels was one main focus of the repeated dose study. The phase I repeated dose study (number 101-50202) was a randomized, double-blind, placebo-controlled 28-day dose-escalation study performed in 31 healthy, elderly men, aged 50-68 years. The main objective of the study was to investigate the tolerability, safety and pharmacokinetics of fispemifene after repeated oral doses, but the study focused also on the effects of fispemifene on serum free and total testosterone, estradiol, and other relevant hormones. The fispemifene doses 10, 30, 100 and 300 mg per day and placebo were administered once every morning as capsules containing 10 mg or 100 mg of fispemifene, or placebo.
The variables for safety and tolerability were adverse events, vital signs, 12-lead ECG, clinical laboratory evaluations, physical examination, ultrasound examinations (mammary glands) and inhibin B. For pharmacokinetics, the concentrations of fispemifene and its metabolite(s) were to be evaluated. For pharmacodynamics, serum concentrations of FSH, LH, estradiol, testosterone, SHBG, prolactin, aldosterone, cortisol and TSH before and during treatment were measured and compared with the concentrations in the placebo-group.

E2 (estradiol) = test: Example 3 study in hypogonadal men: serum estradiol (ITT); assay type: in vivo, human; settings: for Estradiol, Max / Estradiol, Mean ± SD / Estradiol, Median / Estradiol, Min: Baseline (Visit 2);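 for Estradiol, Max: estradiol concentrations in pg/mL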;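 for Estradiol, Mean ± SD: estradiol concentrations in pg/mL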;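 for Estradiol, Median: estradiol concentrations in pg/mL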;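 for Estradiol, Min: estradiol concentrations in pg/mL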
Protocol: A randomized, double-blind, placebo controlled, parallel-group study of once-daily doses of fispemifene (100, 200, and 300 mg/day) given for 4 weeks was conducted in a population of hypogonadal men. Subjects were required to meet all of the following inclusion criteria at screening and prior to randomization to be eligible for the study:
There were 77 subjects total. The number of subjects randomized to the 100 mg fispemifene, 200 mg fispemifene, 300 mg fispemifene, and placebo arms were 21, 21, 19, and 16, respectively.
Subjects were randomly assigned to one of four treatment groups in a 1:1:1:1 ratio: • Treatment A (100 mg): fispemifene 100 mg+placebo+placebo; • Treatment B (200 mg): fispemifene 100 mg+fispemifene 100 mg+placebo; • Treatment C (300 mg): fispemifene 100 mg+fispemifene 100 mg+fispemifene 100 mg; and • Treatment D (Placebo): placebo+placebo+placebo.
Subjects took one dose (three capsules) of study medication once a day at home for 4 weeks. Capsules were to be taken in the morning immediately after breakfast, with the exception of the morning of the Week 4 visit. Capsules were not to be taken on the morning of the Week 4 visit because trough plasma levels of fispemifene were determined by a blood sample taken at this visit. Each subject was randomly assigned to treatment with one of the 3 different dose regimens of fispemifene or placebo vehicle. Each subject received a 4 week supply of study drug.
Blood samples were taken from the subjects within 1 week prior to dosing with study drug to establish baseline values; after 2 and 4 weeks of randomization; and 2 weeks after the last dose of study drug. Serum was prepared from those samples and used to determine the mean % change from baseline in total testosterone, free testosterone, SHBG (sex hormone-binding globulin), DHT (dihydrotestosterone), E2 (estradiol), LH (luteinizing hormone), FSH (follicle stimulating hormone), and inhibin B.
3. Percent change from baseline in SHBG, DHT, E2, LH, FSH, inhibin B, and testosterone/E2 ratio at Weeks 2, 4, and 6.

[1] = 100 mg/day, to Week 6 (2 weeks after discontinuation)
[2] = 200 mg/day, to Week 6 (2 weeks after discontinuation)
[3] = 300 mg/day, to Week 6 (2 weeks after discontinuation)

OCCOCCOc1ccc(/C(=C(/CCCl)c2ccccc2)c2ccccc2)cc1 [Fispemifene, (Z)-2-{2-[4-(4-Chloro-1,2-diphenylbut-1-enyl)phenoxy]ethoxy}ethanol]
Serum FSH, Mean (FSH; 10 mg/day, Baseline): 5.42 U/L | Serum FSH, Mean (FSH; 10 mg/day, Day 8): 5.87 U/L | Serum FSH, Mean (FSH; 10 mg/day, Day 15): 5.20 U/L | Serum FSH, Mean (FSH; 10 mg/day, Day 22): 6.60 U/L | Serum FSH, Mean (FSH; 10 mg/day, Day 28): 5.66 U/L | Serum FSH, Mean (FSH; 30 mg/day, Baseline): 9.14 U/L | Serum FSH, Mean (FSH; 30 mg/day, Day 8): 9.78 U/L | Serum FSH, Mean (FSH; 30 mg/day, Day 15): 10.14 U/L | Serum FSH, Mean (FSH; 30 mg/day, Day 22): 10.18 U/L | Serum FSH, Mean (FSH; 30 mg/day, Day 28): 8.42 U/L | Serum FSH, Mean (FSH; 100 mg/day, Baseline): 6.30 U/L | Serum FSH, Mean (FSH; 100 mg/day, Day 8): 7.68 U/L | Serum FSH, Mean (FSH; 100 mg/day, Day 15): 8.10 U/L | Serum FSH, Mean (FSH; 100 mg/day, Day 22): 8.20 U/L | Serum FSH, Mean (FSH; 100 mg/day, Day 28): 7.73 U/L | Serum FSH, Mean (FSH; 300 mg/day, Baseline): 6.80 U/L | Serum FSH, Mean (FSH; 300 mg/day, Day 8): 8.80 U/L | Serum FSH, Mean (FSH; 300 mg/day, Day 15): 8.73 U/L | Serum FSH, Mean (FSH; 300 mg/day, Day 22): 8.85 U/L | Serum FSH, Mean (FSH; 300 mg/day, Day 28): 7.57 U/L | effect on serum concentration of FSH (FSH; during the 28 days of treatment): increased | Estradiol, Max (E2 (estradiol); 100 mg/day): 34.0 pg/mL | Estradiol, Mean ± SD (E2 (estradiol); 100 mg/day): 18.2 ± 6.54 pg/mL | Estradiol, Median (E2 (estradiol); 100 mg/day): 18.0 pg/mL | Estradiol, Min (E2 (estradiol); 100 mg/day): 10.0 pg/mL | Estradiol, % Change from Baseline, Max (E2 (estradiol); 100 mg/day, to Week 2): 131% | Estradiol, % Change from Baseline, Median (E2 (estradiol); 100 mg/day, to Week 2): 32% | Estradiol, % Change from Baseline, Max (E2 (estradiol); 100 mg/day, to Week 4): 110% | Estradiol, % Change from Baseline, Median (E2 (estradiol); 100 mg/day, to Week 4): 31% | Estradiol, % Change from Baseline, Max (E2 (estradiol); [1]): 80% | Estradiol, % Change from Baseline, Median (E2 (estradiol); [1]): 13% | Estradiol, Max (E2 (estradiol); 200 mg/day): 33.0 pg/mL | Estradiol, Mean ± SD (E2 (estradiol); 200 mg/day): 19.2 ± 6.23 pg/mL | Estradiol, Median (E2 (estradiol); 200 mg/day): 17.0 pg/mL | Estradiol, Min (E2 (estradiol); 200 mg/day): 11.0 pg/mL | Estradiol, % Change from Baseline, Max (E2 (estradiol); 200 mg/day, to Week 2): 171% | Estradiol, % Change from Baseline, Median (E2 (estradiol); 200 mg/day, to Week 2): 23% | Estradiol, % Change from Baseline, Max (E2 (estradiol); 200 mg/day, to Week 4): 150% | Estradiol, % Change from Baseline, Median (E2 (estradiol); 200 mg/day, to Week 4): 43% | Estradiol, % Change from Baseline, Max (E2 (estradiol); [2]): 176% | Estradiol, % Change from Baseline, Median (E2 (estradiol); [2]): 23% | Estradiol, Max (E2 (estradiol); 300 mg/day): 42.0 pg/mL | Estradiol, Mean ± SD (E2 (estradiol); 300 mg/day): 20.8 ± 7.15 pg/mL | Estradiol, Median (E2 (estradiol); 300 mg/day): 22.0 pg/mL | Estradiol, Min (E2 (estradiol); 300 mg/day): 10.0 pg/mL | Estradiol, % Change from Baseline, Max (E2 (estradiol); 300 mg/day, to Week 2): 108% | Estradiol, % Change from Baseline, Median (E2 (estradiol); 300 mg/day, to Week 2): 33% | Estradiol, % Change from Baseline, Max (E2 (estradiol); 300 mg/day, to Week 4): 100% | Estradiol, % Change from Baseline, Median (E2 (estradiol); 300 mg/day, to Week 4): 29% | Estradiol, % Change from Baseline, Max (E2 (estradiol); [3]): 77% | Estradiol, % Change from Baseline, Median (E2 (estradiol); [3]): 0% | effect on serum estradiol levels (E2 (estradiol); hypogonadal men, 100-300 mg/day for 4 weeks): increased
